Literature values in PMC2887613 (ChemMedChem, 2009).
Where two headings read alike, the source gives them in different places.

What was measured:
[1] = target: T1, rat M4 (Rattus norvegicus, UniProt P08485)
T1 sequence (P08485 1-478): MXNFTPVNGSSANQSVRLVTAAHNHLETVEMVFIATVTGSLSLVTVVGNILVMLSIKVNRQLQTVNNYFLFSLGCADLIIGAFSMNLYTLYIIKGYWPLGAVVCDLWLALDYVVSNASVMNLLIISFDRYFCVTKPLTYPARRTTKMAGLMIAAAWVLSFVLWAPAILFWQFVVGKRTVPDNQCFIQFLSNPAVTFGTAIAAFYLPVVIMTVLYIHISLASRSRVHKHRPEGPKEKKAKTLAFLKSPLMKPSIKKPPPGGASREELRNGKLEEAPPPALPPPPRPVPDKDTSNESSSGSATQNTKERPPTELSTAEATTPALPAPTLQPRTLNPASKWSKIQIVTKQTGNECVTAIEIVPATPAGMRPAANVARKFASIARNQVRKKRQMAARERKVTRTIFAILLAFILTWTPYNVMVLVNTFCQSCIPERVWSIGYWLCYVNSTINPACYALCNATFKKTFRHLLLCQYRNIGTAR

[2] = lead compound
[3] = target: T1, rat M4; details: rat M4/Gqi5-expressing cells, first generation compounds
[4] = human, microsomes, 1.5 h
[5] = rat, microsomes, 1.5 h

brain penetration | leftward shift of an ACh CRC ([1]; Ca2+ mobilization assay in rat M4/Gqi5-expressing cells) [fold] | ACh CRC fold-shift ([1]; first generation compounds, previously reported) [x] | solubility [2] | EC50 [3] [µM] | parent remaining [4] [%] | brain penetration (in vivo) | parent remaining [5] [%] | SMILES
lack of brain penetration | 47 | 47 | solubility issues | 0.4 |  |  |  | Cc1cc(C)c2c(N)c(C(=O)NCc3ccc(Cl)cc3)sc2n1 [Compd 1]
 |  |  |  |  | < 10 | centrally penetrating | < 10 | COc1ccc(CNC(=O)c2sc3nc(C)cc(C)c3c2N)cc1 [Compd 3]
